# Measured values published in ChEMBL document CHEMBL5346961, “Discovery and Evaluation of 3-Quinoxalin Urea Derivatives as Potent, Selective, and Orally Available ATM Inhibitors Combined with Chemotherapy for the Treatment of Cancer via Goal-Oriented Molecule Generation and Virtual Screening” (J Med Chem, 2023).
# Active and inactive are the calls of the source. No cut-off for these calls is given here.
# Experiments:
# [1] = Metabolic stability in human liver microsomes assessed as clearance at 1 uM in presence of NADPH-regenerating system by LC-MS/MS analysis; assay type: ADME, Microsome
# [2] = Metabolic stability in human liver microsomes assessed as half life at 1 uM in presence of NADPH-regenerating system by LC-MS/MS analysis; assay type: ADME, Microsome
# [3] = target: Serine-protein kinase ATM (Homo sapiens, UniProt Q13315); assay: Inhibition of ATM (unknown origin) assessed as remaining activity at 0.01 uM preincubated with compound for 30 mins followed by substrate addition and measured after 2 hrs by HTRF method relative to control; conditions: time 2.5 hrs
# [4] = tested on: HCT-116; assay: Antiproliferative activity against human HCT-116 cells assessed as cell survival at 1 uM incubated for 6 days by MTT assay relative to control; assay type: functional; conditions: HCT-116, 144 h, time 6 day, read-out: Survival
# [5] = tested on: MCF7; assay: Synergistic antiproliferative activity against human MCF7 cells assessed as combination index at […] measured after 6 days in presence irinotecan by MTT assay; assay type: functional; conditions: dose lower 100 µM; time 6 day
# [6] = tested on: HCT-116; assay: Induction of apoptosis in human HCT-116 cells assessed as viable cells at 2 uM measured after 2 days by AnnexinV-FITC/PI staining based analysis (reference value: 72.8%); assay type: functional; conditions: HCT-116, 48 h, time 2 day, read-out: Activity
# [7] = tested on: HCT-116; assay: Induction of apoptosis in human HCT-116 cells assessed as viable cells at 4 uM measured after 2 days by AnnexinV-FITC/PI staining based analysis (reference value: 72.8%); assay type: functional; conditions: HCT-116, 48 h, time 2 day, read-out: Activity
# [8] = tested on: HCT-116; assay: Induction of apoptosis in human HCT-116 cells assessed as early apoptotic cells at 1 uM measured after 2 days by AnnexinV-FITC/PI staining based analysis (reference value: 14.4%); assay type: functional; conditions: time 2 day
# [9] = tested on: HCT-116; assay: Induction of apoptosis in human HCT-116 cells assessed as early apoptotic cells at 2 uM measured after 2 days by AnnexinV-FITC/PI staining based analysis (reference value: 14.4%); assay type: functional; conditions: time 2 day
# [10] = tested on: HCT-116; assay: Induction of apoptosis in human HCT-116 cells assessed as early apoptotic cells at 4 uM measured after 2 days by AnnexinV-FITC/PI staining based analysis (reference value: 14.4%); assay type: functional; conditions: time 2 day
# [11] = tested on: HCT-116; assay: Induction of apoptosis in human HCT-116 cells assessed as late apoptotic cells at 2 uM measured after 2 days by AnnexinV-FITC/PI staining based analysis (reference value: 12.2%); assay type: functional; conditions: time 2 day
# [12] = tested on: HCT-116; assay: Induction of apoptosis in human HCT-116 cells assessed as late apoptotic cells at 4 uM measured after 2 days by AnnexinV-FITC/PI staining based analysis (reference value: 12.2%); assay type: functional; conditions: time 2 day
# [13] = tested on: HCT-116; assay: Induction of apoptosis in human HCT-116 cells assessed as necrotic cells at 2 uM measured after 2 days by AnnexinV-FITC/PI staining based analysis (reference value: 0.64%); assay type: functional; conditions: time 2 day
# [14] = tested on: HCT-116; assay: Induction of apoptosis in human HCT-116 cells assessed as viable cells at 1 uM measured after 2 days in presence of irinotecan by AnnexinV-FITC/PI staining based analysis (reference value: 72.8%); assay type: functional; conditions: HCT-116, 48 h, time 2 day, read-out: Activity
# [15] = tested on: HCT-116; assay: Induction of apoptosis in human HCT-116 cells assessed as viable cells at 2 uM measured after 2 days in presence of irinotecan by AnnexinV-FITC/PI staining based analysis (reference value: 72.8%); assay type: functional; conditions: HCT-116, 48 h, time 2 day, read-out: Activity
# [16] = tested on: HCT-116; assay: Induction of apoptosis in human HCT-116 cells assessed as late apoptotic cells at 2 uM measured after 2 days in presence of irinotecan by AnnexinV-FITC/PI staining based analysis (reference value: 12.2%); assay type: functional; conditions: time 2 day
# [17] = tested on: HCT-116; assay: Induction of apoptosis in human HCT-116 cells assessed as necrotic cells at 2 uM measured after 2 days in presence of irinotecan by AnnexinV-FITC/PI staining based analysis (reference value: 0.64%); assay type: functional; conditions: time 2 day
# [18] = tested on: HCT-116; assay: Induction of cell cycle arrest in human HCT-116 cells assessed as increase in accumulation of cells at G2/M phase at 1 to 4 uM measured after 48 hrs in presence of irinotecan by propidium iodide staining based flow cytometry analysis; assay type: functional; conditions: dose 1-4 µM
# [19] = target: T1, DNA-dependent protein kinase catalytic subunit (Homo sapiens, UniProt P78527); assay: Inhibition of DNA-PK (unknown origin) at 1 uM in presence of [gamma33P-ATP] by scintillation counting method relative to control
# T1 sequence (P78527 whole entry): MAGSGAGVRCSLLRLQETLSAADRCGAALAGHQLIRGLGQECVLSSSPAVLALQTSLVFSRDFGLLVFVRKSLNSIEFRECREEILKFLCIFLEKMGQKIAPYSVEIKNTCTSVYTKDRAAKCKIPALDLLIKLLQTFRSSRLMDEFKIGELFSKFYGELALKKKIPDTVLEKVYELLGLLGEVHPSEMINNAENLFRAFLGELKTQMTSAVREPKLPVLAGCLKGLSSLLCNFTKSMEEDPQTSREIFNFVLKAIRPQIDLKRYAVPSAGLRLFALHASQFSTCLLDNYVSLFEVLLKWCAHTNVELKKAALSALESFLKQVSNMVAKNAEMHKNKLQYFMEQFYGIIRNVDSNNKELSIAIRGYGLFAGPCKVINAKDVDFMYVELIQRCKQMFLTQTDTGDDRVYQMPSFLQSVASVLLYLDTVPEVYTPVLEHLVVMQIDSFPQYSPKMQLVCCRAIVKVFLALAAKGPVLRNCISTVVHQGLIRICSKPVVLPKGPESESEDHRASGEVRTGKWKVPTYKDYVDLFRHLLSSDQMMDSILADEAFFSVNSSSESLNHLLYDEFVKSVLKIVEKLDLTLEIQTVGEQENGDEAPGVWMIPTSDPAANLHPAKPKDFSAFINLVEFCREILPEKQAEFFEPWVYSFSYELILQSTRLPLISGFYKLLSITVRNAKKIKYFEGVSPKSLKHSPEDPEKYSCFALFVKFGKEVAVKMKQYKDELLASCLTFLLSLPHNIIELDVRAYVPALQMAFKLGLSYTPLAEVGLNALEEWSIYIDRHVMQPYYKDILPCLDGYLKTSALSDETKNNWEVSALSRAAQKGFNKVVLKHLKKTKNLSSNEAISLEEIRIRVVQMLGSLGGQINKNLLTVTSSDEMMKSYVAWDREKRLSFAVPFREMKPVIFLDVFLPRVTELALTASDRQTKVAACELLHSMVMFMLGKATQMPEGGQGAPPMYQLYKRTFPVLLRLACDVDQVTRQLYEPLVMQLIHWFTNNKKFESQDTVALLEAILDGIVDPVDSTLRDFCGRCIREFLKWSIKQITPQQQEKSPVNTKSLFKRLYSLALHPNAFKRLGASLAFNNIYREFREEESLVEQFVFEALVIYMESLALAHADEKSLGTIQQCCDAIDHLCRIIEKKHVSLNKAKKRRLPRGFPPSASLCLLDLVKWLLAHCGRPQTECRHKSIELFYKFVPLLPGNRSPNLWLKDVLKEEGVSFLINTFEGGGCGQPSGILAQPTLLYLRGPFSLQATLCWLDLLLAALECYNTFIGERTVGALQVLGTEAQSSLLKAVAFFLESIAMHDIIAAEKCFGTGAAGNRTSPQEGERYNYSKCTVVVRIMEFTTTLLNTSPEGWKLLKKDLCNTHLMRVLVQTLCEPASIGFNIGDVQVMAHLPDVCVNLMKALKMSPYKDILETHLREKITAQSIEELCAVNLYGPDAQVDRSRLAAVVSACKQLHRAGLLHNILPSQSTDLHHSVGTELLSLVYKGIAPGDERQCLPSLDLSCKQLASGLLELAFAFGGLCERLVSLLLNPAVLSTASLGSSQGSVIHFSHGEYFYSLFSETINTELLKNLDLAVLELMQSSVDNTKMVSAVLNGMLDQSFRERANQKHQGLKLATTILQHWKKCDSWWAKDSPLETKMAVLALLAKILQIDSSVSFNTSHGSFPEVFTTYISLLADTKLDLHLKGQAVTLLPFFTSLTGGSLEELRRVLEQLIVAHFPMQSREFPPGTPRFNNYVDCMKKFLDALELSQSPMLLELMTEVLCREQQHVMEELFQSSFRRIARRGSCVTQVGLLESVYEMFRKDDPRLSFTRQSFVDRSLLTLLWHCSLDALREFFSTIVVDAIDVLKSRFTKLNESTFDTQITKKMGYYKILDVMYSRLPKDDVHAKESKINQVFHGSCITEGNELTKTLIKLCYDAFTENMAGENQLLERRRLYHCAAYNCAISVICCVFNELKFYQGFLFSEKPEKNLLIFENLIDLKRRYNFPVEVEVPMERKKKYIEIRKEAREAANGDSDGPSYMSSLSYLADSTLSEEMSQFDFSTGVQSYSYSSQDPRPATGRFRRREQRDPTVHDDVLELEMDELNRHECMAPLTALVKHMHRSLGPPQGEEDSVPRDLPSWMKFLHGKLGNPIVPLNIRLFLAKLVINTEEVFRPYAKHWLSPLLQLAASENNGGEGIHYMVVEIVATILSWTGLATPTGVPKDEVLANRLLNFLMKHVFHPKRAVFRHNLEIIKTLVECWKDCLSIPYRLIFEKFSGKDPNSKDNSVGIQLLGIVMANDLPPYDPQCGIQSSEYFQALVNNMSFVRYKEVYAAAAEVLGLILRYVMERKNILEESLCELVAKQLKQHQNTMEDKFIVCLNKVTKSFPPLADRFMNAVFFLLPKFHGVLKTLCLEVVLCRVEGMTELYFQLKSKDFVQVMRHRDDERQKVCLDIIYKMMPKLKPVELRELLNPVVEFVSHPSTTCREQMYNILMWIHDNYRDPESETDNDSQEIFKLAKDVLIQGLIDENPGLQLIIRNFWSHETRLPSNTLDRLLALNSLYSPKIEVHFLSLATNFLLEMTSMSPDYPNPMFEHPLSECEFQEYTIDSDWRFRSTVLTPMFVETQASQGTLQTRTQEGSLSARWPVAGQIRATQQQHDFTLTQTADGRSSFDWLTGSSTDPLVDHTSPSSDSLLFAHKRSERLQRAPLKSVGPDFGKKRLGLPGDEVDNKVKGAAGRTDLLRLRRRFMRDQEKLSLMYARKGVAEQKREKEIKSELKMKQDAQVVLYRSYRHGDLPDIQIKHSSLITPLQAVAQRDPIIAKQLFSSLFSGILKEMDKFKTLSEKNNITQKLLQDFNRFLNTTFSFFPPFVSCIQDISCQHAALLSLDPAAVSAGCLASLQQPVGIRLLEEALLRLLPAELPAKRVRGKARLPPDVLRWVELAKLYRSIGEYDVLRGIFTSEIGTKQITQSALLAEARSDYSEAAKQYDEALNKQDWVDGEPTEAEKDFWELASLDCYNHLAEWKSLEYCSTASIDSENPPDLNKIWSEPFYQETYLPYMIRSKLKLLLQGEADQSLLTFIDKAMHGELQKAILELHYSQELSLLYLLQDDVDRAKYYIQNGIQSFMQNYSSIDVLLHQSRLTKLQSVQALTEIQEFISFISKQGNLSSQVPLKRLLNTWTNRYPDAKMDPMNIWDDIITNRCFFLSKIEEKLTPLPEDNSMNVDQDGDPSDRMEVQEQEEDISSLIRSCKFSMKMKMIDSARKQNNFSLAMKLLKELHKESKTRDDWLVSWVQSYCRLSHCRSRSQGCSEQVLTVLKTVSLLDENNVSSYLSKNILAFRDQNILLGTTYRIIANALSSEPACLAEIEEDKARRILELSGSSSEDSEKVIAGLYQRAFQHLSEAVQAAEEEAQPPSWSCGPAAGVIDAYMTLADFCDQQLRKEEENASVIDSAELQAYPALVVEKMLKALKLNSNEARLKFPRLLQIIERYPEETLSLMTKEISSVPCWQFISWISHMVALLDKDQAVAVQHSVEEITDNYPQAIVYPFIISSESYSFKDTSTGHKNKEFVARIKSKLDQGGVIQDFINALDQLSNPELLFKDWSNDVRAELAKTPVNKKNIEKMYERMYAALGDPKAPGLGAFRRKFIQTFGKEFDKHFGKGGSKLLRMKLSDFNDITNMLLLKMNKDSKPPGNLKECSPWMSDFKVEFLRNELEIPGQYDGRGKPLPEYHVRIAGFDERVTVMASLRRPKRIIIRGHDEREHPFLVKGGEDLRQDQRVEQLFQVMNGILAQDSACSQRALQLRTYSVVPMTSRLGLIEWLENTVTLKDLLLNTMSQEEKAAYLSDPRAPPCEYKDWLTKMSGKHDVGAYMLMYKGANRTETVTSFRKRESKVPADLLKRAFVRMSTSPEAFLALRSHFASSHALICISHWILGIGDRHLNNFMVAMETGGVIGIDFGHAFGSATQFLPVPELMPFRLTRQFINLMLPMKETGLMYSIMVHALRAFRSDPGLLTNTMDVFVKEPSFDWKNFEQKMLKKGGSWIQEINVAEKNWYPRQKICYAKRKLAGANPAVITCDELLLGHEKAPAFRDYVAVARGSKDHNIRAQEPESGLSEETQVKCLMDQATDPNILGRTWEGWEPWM
# [20] = target: T1, DNA-dependent protein kinase catalytic subunit; assay: Inhibition of DNA-PK (unknown origin) in presence of [gamma33P-ATP] by scintillation counting method
# [21] = Apparent permeability of compound across apical to basal membrane in human Caco-2 cells; assay type: ADME, cell-based
# [22] = Efflux ratio of apparent permeability in human Caco-2 cells; assay type: ADME, cell-based
# [23] = Cmax in Balb/C mouse at 10 mg/kg,iv measured upto 48 hrs by LC-MS/MS analysis; assay type: ADME, organism-based; design: time < 48 hrs, dose 10 mg/kg, route iv; conditions: in vivo
# [24] = Cmax in Balb/C mouse at 10 mg/kg,po measured upto 48 hrs by LC-MS/MS analysis; assay type: ADME, organism-based; design: dose 10 mg/kg, time < 48 hrs, route po; conditions: in vivo
# [25] = Tmax in Balb/C mouse at 10 mg/kg,iv measured upto 48 hrs by LC-MS/MS analysis; assay type: ADME, organism-based; conditions: in vivo
# [26] = Half life in Balb/C mouse at 10 mg/kg,iv measured upto 48 hrs by LC-MS/MS analysis; assay type: ADME, organism-based; conditions: in vivo
# [27] = Volume of distribution at steady state in Balb/C mouse at 10 mg/kg,iv measured upto 48 hrs by LC-MS/MS analysis; assay type: ADME, organism-based; conditions: in vivo, read-out: Vdss
# [28] = AUC (0 to t) in Balb/C mouse at 10 mg/kg,po measured upto 48 hrs by LC-MS/MS analysis; assay type: ADME, organism-based; design: dose 10 mg/kg, time < 48 hrs, route po; conditions: in vivo
# [29] = tested on: SW-620; assay: Antitumor activity against human SW620 cells xenografted in BALB/c nude mouse model assessed as tumor growth inhibition at 40 mg/kg, po administered once daily for 3 days weekly for 21 days by caliper method; assay type: functional, organism-based; conditions: time 21.0 day
# [30] = tested on: SW-620; assay: Antitumor activity against human SW620 cells xenografted in BALB/c nude mouse model assessed as tumor growth inhibition at 20 mg/kg, po administered once daily for 3 days weekly after irinotecan post treatment for 21 days by caliper method relative to control; assay type: functional; conditions: SW-620, 504 h, time 21 day, read-out: TGI
# [31] = tested on: SW-620; assay: Antitumor activity against human SW620 cells xenografted in BALB/c nude mouse model assessed as tumor growth inhibition at 40 mg/kg, po administered once daily for 3 days weekly after irinotecan post treatment for 21 days by caliper method relative to control; assay type: functional; conditions: SW-620, 504 h, time 21 day, read-out: TGI
# [32] = Toxicity in BALB/c nude mouse assessed as drug tolerance at 20 to 40 mg/kg, po administered once daily for 3 days weekly after irinotecan post treatment for 21 days in presence of irinotecan; assay type: organism-based; conditions: in vivo, 504 h, dose 20-40 mg/kg, time 21 day
# [33] = tested on: HCT-116; assay: Induction of DNA damage in human HCT-116 cells assessed as reduction in ATM phosphorylation at S1981 residue at 0.5 to 2 uM measured after 4 hrs by Western blot analysis; assay type: functional, cell-based; conditions: dose 0.5-2 µM
# [34] = tested on: HCT-116; assay: Induction of DNA damage in human HCT-116 cells assessed as reduction in p21 phosphorylation at T145 residue at 0.5 to 2 uM measured after 4 hrs by Western blot analysis; assay type: functional, cell-based; conditions: dose 0.5-2 µM
structure (smiles),measurement,setting,value
CC(C)NC(=O)N(C)c1cnc2ccc(-c3ccc(OCCCN4CCCCC4)nc3)cc2n1,CLH,[1],1.8 mL/min/g
same,half-life at 1 µM,[2],12.8 h
same,Activity,[3],2%
same,viability at 1 µM,[4],> 83%
same,CI,[5],<1
same,viability at 2 µM,[6],67.3%
same,viability at 4 µM,[7],68.3%
same,Activity,[8],18.3%
same,Activity,[9],17.6%
same,Activity,[10],18.1%
same,Activity,[11],14.2%
same,Activity,[12],13%
same,Activity,[13],0.92%
same,viability at 1 µM,[14],17.3%
same,viability at 2 µM,[15],14%
same,Activity,[16],33.1%
same,Activity,[17],1.67%
same,Activity,[18],Active
same,inhibition,[19],< 50%
same,IC50,[20],420 nM
same,Papp A→B,[21],1.02 ×10⁻⁶ cm/s
same,efflux ratio,[22],2.37
same,Cmax,[23],6790 ng/mL
same,Cmax,[24],10200 ng/mL
same,Tmax,[25],4.8 min
same,t1/2,[26],5.29 h
same,Vd,[27],5.93 L/kg
same,AUCt,[28],13952.23 ng·h/mL
same,Activity,[29],inactive
same,inhibition in vivo at 20 mg/kg,[30],77.2%
same,inhibition in vivo at 40 mg/kg,[31],85.3%
same,Activity,[32],Toxic
same,Activity,[33],Active
same,Activity,[34],Active
